{
  "source": "patent US9453198B2",
  "about": "“Method of nociceptor differentiation of human embryonic stem cells and uses thereof” (MEMORIAL SLOAN KETTERING CANCER CENTER, priority 2010, dated 2016)",
  "key": {"[1]": {"tested_on": "hPSCs", "test": "Intracellular FACS for Nestin and TUJ1 (efficiency of neuronal differentiation)", "type": "cell-based, human", "details": "day 10, further inhibitors added day 2 of LSB treatment", "description": "In the presence of LSB, SU/DAPT, DAPT, SU and CHIR, the majority of cells expressed Nestin. In particular, >95% of the LSB cell population were Nestin+.\nNeural induction was performed as previously reported (Chambers, et al., Nat Biotechnol 27, (2009), herein incorporated by reference). Briefly, cells were collected then rendered to a single cell suspension using ACCUTASE (Sigma-Aldrich Corp. St. Louis, Mo., USA) and plated on gelatin for 30 minutes to remove Mouse Embryonic Fibroblast (MEF) Feeder Cells (MEFs) (MEFs adhere to gelatin coated plate). Non-adherent cells were collected and plated on matrigel treated dishes at a density of 20-40,000 cells/cm^2 in the presence of MEF-conditioned hESC media containing 10 ng/ml FGF-2 and 10 μM Y-27632 (rho-kinase inhibitor—Tocris Bioscience). Neural differentiation was initiated when the cells were confluent using Knockout Serum Replacement (KSR) media containing 820 ml of Knockout DMEM, 150 ml Knockout Serum Replacement, 1 mM L-glutamine, 100 μM MEM non-essential amino acids, and 0.1 mM β-mercaptoethanol. To inhibit SMAD signaling, 100 nM LDN-193189 and 10 μM SB431542 were added daily from day 0 (when SMAD signaling inhibitors LSB were added) through day 5. Cells were fed daily (i.e. 6 feedings with inhibitors, D0, D1, D2, D3, D4 and D5), and N2 media was added to the initial medium in increasing 25% increments every other day starting on day 4 (up to 100% N2 on day 10). […] After day 10, long-term culture media consisted of N2 media containing 10-100 ng/ml human-β-nerve growth factor (NGF), 10-100 ng/ml brain-derived neurotrophic factor (BDNF), and 10-100 ng/ml glial cell-derived neurotrophic factor (GDNF).\nCells were fixed with 4% paraformaldehyde for 20 minutes, washed with phosphate buffered saline (PBS), permeablized using 0.5% Triton X in PBS, and blocked using 1% BSA (bovine serum albumin) in phosphate buffered saline (PBS). For glutamate staining, 0.05% gluteraldehyde was added to the fixative. […]"}, "[2]": {"tested_on": "transgenic SOX10::GFP BAC hESC line", "test": "SOX10::GFP reporter FACS (neural crest induction)", "type": "cell-based, human", "details": "by day 12 of differentiation", "description": "Thus, in order to determine if a neural crest intermediate cell fate marked by SOX10 (Aoki, et al., Dev Biol 259, 19-33, (2003); Lee, et al., Nat Biotechnol 25, 1468-1475, (2007), herein incorporated by reference) in human cells would be observed during differentiation using a transgenic SOX10::GFP bacterial artificial chromosome (BAC) hPSC line. This SOX10:: GFP (BAC) cell line was generated with enriched neural crest gene markers that co-expressed with a GFP gene using methods previously reported (Placantonakis, et al., Stem Cells 27:521-532, (2009), herein incorporated by reference). The SOX10:GFP cell line was a sub-clone of the H9 hESC line. Cells were dissociated and gene delivery was performed using reagents (solution V), protocol (B-16), and equipment from Amaxa. The DNA nucleofected (transfected into the nucleus) was a bacterial artificial chromosome (BAC) containing the SOX10 gene with an inserted GFP, obtained from Gene Expression Nervous System Atlas [GENSAT] (accession number: GENSAT1-BX1086). […]"}, "[3]": {"tested_on": "rodent GSK3β homologs", "details": "cited from earlier work"}, "[4]": {"tested_on": "human ES cells", "test": "Combinatorial small molecule screen, TUJ1/PAX6 immunofluorescence on day 10", "type": "cell-based", "details": "no matter when added during LSB treatment", "description": "Specifically, in the context of dual SMAD inhibition (LSB), i.e. human ES cells were first treated with LSB (LDN-193189 and SB431542) for screening candidate compounds (i.e. small molecules) under approximately 400 conditions in order to find combinations of small molecules that might accelerate the acquisition of postmitotic neuron markers starting from human ES cells. Candidate compounds were chosen from molecules that targeted (altered) cell signaling pathways known to be important and frequently used in developmental studies in order to determine cell fates (for example, signaling pathways such as FGF, Notch, WNT, SHH (Sonic Hedgehog), etc.) for determining cells capable of CNS development. […]\nOn day 10 after addition of LSB, cells that survived during the screen were monitored for the loss of the human neuroectoderm marker PAX6 (Zhang, et al., Cell Stem Cell 7, 90-100, (2010), herein incorporated by reference) and initiation of neuronal differentiation by TUJ1 expression (Lee, et al., Cell Motil Cytoskeleton 17, 118-132, (1990), herein incorporated by reference). […] In general, results were determined by observing comparative amounts of TUJ1+/PAX6− staining of cells generated by each treatment such that the conditions and compounds showing the highest amounts of TUJ1+/PAX6− staining were chosen as successful for providing cells for further analysis. […]"}, "[5]": {"tested_on": "hESC", "test": "Timing of 3i addition after LSB induction (survival, TUJ1)", "type": "cell-based", "description": "Cells were stained for identifying antibodies that bound to OCT4 (dark) and PAX6 (light) in addition to a nuclear 4′-6 Diamidino-2-phenylindole (DAPI) stain.\nThe stem cells treated with the combination of LSB and 3i were fixed on day 11 and examined for survival and expression of the neuronal marker TUJ1."}, "[6]": {"tested_on": "melanocyte precursors from hESC", "test": "Expansion and maturation of melanocytes", "type": "cell-based, human", "details": "component left out of formulation", "description": "Melanocyte characteristics evaluated included induction of spindle morphology, pigmentation, and melanosome formation.\nSpecifically, the following time line of culturing conditions was developed that produced melanocytes of the present inventions: Feed on Day 0 and 1 with LDN and SB (using the same concentration ranges as LDN and SB in methods comprising 3i); Feed on Day 2 with LDN, SB, CHIR (using the same concentration ranges as LDN, SB, and CHIR in methods comprising 3i as described herein); In one embodiment, Feed on Day 3 with SB, CHIR (using the same concentration ranges as SB and CHIR in methods comprising 3i as described herein), in another embodiment Feed on Day 3 with LDN, SB, CHIR (using the same concentration ranges as LDN, SB, and CHIR in methods comprising 3i as described herein); Feed on Day 4 and 5 CHIR (using the same concentration ranges as CHIR in methods comprising 3i as described herein); Feed on Day 6 to 11 CHIR, BMP4, and EDN3 (using the same concentration ranges as CHIR in methods comprising 3i as described herein, see concentration ranges below for BMP4 and EDN3). On day 11 cells were passaged and fed with MEL media (including CHIR) up to 8 weeks. […]"}},
  "data": [
    {"compound": "Cc1c[nH]c(-c2cnc(NCCNc3ccc(C#N)cn3)nc2-c2ccc(Cl)cc2Cl)n1", "note": "[CHIR99021, 6-(2-(4-(2,4-dichlorophenyl)-5-(4-methyl-1H-imidazol-2-yl)pyrimidin-2-ylamino)ethylamino)nicotinonitrile]", "values": [
      {"measurement": "Nestin positive cells (progenitors)", "setting": "[1]", "result": "majority"},
      {"measurement": "SOX10::GFP+ cells", "setting": "[2]", "result": "greater than 70%"},
      {"measurement": "IC50 values", "setting": "[3]", "result": "nanomolar"}
    ]},
    {"compound": "CC1=C2C[C@H]3[C@@H](CC=C4C[C@@H](O)CC[C@@]43C)[C@@H]2CC[C@]12O[C@@H]1C[C@H](C)CN[C@H]1[C@H]2C", "note": "[Cyclopamine]", "values": [
      {"measurement": "effect on TUJ1/PAX6 staining", "setting": "[4]", "result": "no effect"}
    ]},
    {"compound": "C[C@H](NC(=O)Cc1cc(F)cc(F)c1)C(=O)N[C@H](C(=O)OC(C)(C)C)c1ccccc1", "note": "[DAPT, N—[N-(3,5-Difluorophenacetyl)-L-alanyl]-S-phenylglycine t-butyl ester]", "values": [
      {"measurement": "Nestin positive cells (progenitors)", "setting": "[1]", "result": "majority"}
    ]},
    {"compound": "c1ccc2c(-c3cnn4cc(-c5ccc(N6CCNCC6)cc5)cnc34)ccnc2c1", "note": "[LDN193189, 4-(6-(4-(piperazin-1-yl)phenyl)pyrazolo[1,5-a]pyrimidin-3-yl)quinoline]", "values": [
      {"measurement": "effect of inclusion or exclusion from days 5 to 10 on the differentiation", "setting": "[5]", "result": "does not make a difference"}
    ]},
    {"compound": "CCCCC/C=C\\C/C=C\\CCCCCCCC(=O)O", "note": "[Linoleic Acid]", "values": [
      {"measurement": "requirement in medium for growth of melanocytes", "setting": "[6]", "result": "required"}
    ]},
    {"compound": "Cc1c[nH]c(/C=C2\\C(=O)Nc3ccccc32)c1CCC(=O)O", "note": "[SU5402, 2-[(1,2-Dihydro-2-oxo-3H-indol-3-ylidene)methyl]-4-methyl-1H-pyrrole-3-propanoic acid]", "values": [
      {"measurement": "Nestin positive cells (progenitors)", "setting": "[1]", "result": "majority"}
    ]}
  ]
}
